From patent publication US20020137929A1, “1 - (3-heterocyclylphenyl) isothiourea, -isourea, -guanidine and -amidine herbicidal agents” (Intellectual Property Department, BASF Aktiengesellschaft, priority 1998, published 2002)

Legend:
[1] = system: GLXMAW (Soybean, Williams); assay: Postemergence herbicidal evaluation; type: in vivo, Glycine max, (L.) Merr. cv Williams
Procedure, shortened: (§1)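 Scores (0–9) reflect plant stand, vigor, malformation, size, chlorosis and general appearance relative to control, read 4 to 5 weeks after treatment and averaged where tests were repeated. Application: about 0.0156–0.500 kg/ha sprayed at 40 psi onto two-week seedlings.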

CYPIR (Rice Flatsedge) = assay: Preemergence weed control under flooded paddy conditions; type: in vivo, Cyperus iria; conditions: rated 3-4 weeks after treatment
Procedure, shortened: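 Ratings on a 0-9 visual scale cover stand, vigor, malformation, size, chlorosis and overall appearance relative to a control, taken three to four weeks post-treatment. Application was into flood water over freshly sown silt loam at roughly 0.0313 to 0.500 kg/ha.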

SETVI (Foxtail, Green) [2] = assay: Preemergence herbicidal evaluation; type: in vivo, Setaria viridis; conditions: rated 4-5 weeks after treatment
Procedure, shortened: (§2)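 Visual 0-9 rating vs control (stand, vigor, malformation, size, chlorosis, overall appearance), scored 4-5 wk after spraying. Seeded soil cups were treated preemergence with compound in aqueous acetone, ~0.0156-0.500 kg/ha equivalent.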

SETVI (Foxtail, Green) [3] = assay: Postemergence herbicidal evaluation; type: in vivo, Setaria viridis
Procedure, shortened: as §1

[4] = system: TRZAWR (Wheat, Winter, cv Riband); assay: Postemergence herbicidal evaluation; type: in vivo, Triticum aestivum
Procedure, shortened: as §1

ABUTH (Velvetleaf) = assay: Postemergence herbicidal evaluation; type: in vivo, Abutilon theophrasti
Procedure, shortened: as §1

CYPSE (Flatsedge) = assay: Postemergence weed control under flooded paddy conditions; type: in vivo, Cyperus serotinus; conditions: postemergence weeds, rated 3 to 4 weeks after treatment
Procedure, shortened: (§3)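 Flood-water application, about 0.0313–0.500 kg/ha a.i. in aqueous/acetone 50/50 v/v; water depth 1.5–3 cm throughout. Weeds 3–5 cm, rice 1.5–2.5 leaf. Greenhouse; 0–9 visual rating vs control at 3–4 wk.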

GALAP (Galium) = assay: Preemergence herbicidal evaluation; type: in vivo, Galium aparine; conditions: rated 4-5 weeks after treatment
Procedure, shortened: as §2

[5] = system: CHEAL (Lambsquarters, Common); assay: Postemergence herbicidal evaluation; type: in vivo, Chenopodium album
Procedure, shortened: as §1

[6] = system: ECHORC (Watergrass (Calif.)); assay: Postemergence weed control under flooded paddy conditions; type: in vivo, Echinochloa oryzoides; conditions: postemergence weeds, rated 3 to 4 weeks after treatment
Procedure, shortened: as §3

AMBEL (Ragweed, Common) = assay: Preemergence herbicidal evaluation; type: in vivo, Ambrosia artemisifolia; conditions: rated 4-5 weeks after treatment
Procedure, shortened: as §2

[7] = system: SAGPY (Arrowhead (Pygmaea)); assay: Postemergence weed control under flooded paddy conditions; type: in vivo, Sagittaria pygmaea; conditions: postemergence weeds, rated 3 to 4 weeks after treatment
Procedure, shortened: as §3

ZEAMX (Corn, Field) = assay: Postemergence herbicidal evaluation; type: in vivo, Zea mays
Procedure, shortened: as §1

ORYSAT (Rice, Tebonnet) = assay: Postemergence herbicidal evaluation; type: in vivo, Oryza sativa, (L.) Tebonnet
Procedure, shortened: as §1

CN1C(=O)C(CC(=O)O)SC1=Nc1cc(-n2c(=O)cc(C(F)(F)F)n(C)c2=O)c(F)cc1Cl (centres unmarked) [Compound 63, 2-{{2-Chloro-5-[3,6-dihydro-3-methyl-2,6-dioxo-4-(trifluoromethyl)-1(2H)-pyrimidinyl]-4-fluoro-phenyl}imino}-3-methyl-4-oxo-5-thiazolidineacetic acid]
Postemergence herbicidal rating GLXMAW ([1]; Rate 0.0158 kg/ha): 6.5 | Postemergence herbicidal rating GLXMAW ([1]; Rate 0.0315 kg/ha): 8.5 | Postemergence herbicidal rating GLXMAW ([1]; Rate 0.0630 kg/ha): 7.5 | CYPIR herbicidal effect rating (CYPIR (Rice Flatsedge); 0.0313 kg/ha): 2.0 | CYPIR herbicidal effect rating (CYPIR (Rice Flatsedge); 0.0625 kg/ha): 6.0 | CYPIR herbicidal effect rating (CYPIR (Rice Flatsedge); 0.1250 kg/ha): 7.0 | CYPIR herbicidal effect rating (CYPIR (Rice Flatsedge); 0.2500 kg/ha): 7.0 | Preemergence herbicidal rating SETVI (SETVI (Foxtail, Green) [2]; rate 0.0156 kg/ha): 0.0 | Preemergence herbicidal rating SETVI (SETVI (Foxtail, Green) [2]; rate 0.0313 kg/ha): 0.0 | Preemergence herbicidal rating SETVI (SETVI (Foxtail, Green) [2]; rate 0.0625 kg/ha): 1.0 | Preemergence herbicidal rating SETVI (SETVI (Foxtail, Green) [2]; rate 0.1250 kg/ha): 9.0 | Preemergence herbicidal rating SETVI (SETVI (Foxtail, Green) [2]; rate 0.2500 kg/ha): 9.0 | Postemergence herbicidal rating SETVI (SETVI (Foxtail, Green) [3]; Rate 0.0158 kg/ha): 9.0 | Postemergence herbicidal rating SETVI (SETVI (Foxtail, Green) [3]; Rate 0.0315 kg/ha): 9.0 | Postemergence herbicidal rating SETVI (SETVI (Foxtail, Green) [3]; Rate 0.0630 kg/ha): 9.0 | Postemergence herbicidal rating TRZAWR ([4]; Rate 0.0158 kg/ha): 5.5 | Postemergence herbicidal rating TRZAWR ([4]; Rate 0.0315 kg/ha): 6.0 | Postemergence herbicidal rating TRZAWR ([4]; Rate 0.0630 kg/ha): 7.0 | Postemergence herbicidal rating ABUTH (ABUTH (Velvetleaf); Rate 0.0158 kg/ha): 9.0 | Postemergence herbicidal rating ABUTH (ABUTH (Velvetleaf); Rate 0.0315 kg/ha): 6.0 | Postemergence herbicidal rating ABUTH (ABUTH (Velvetleaf); Rate 0.0630 kg/ha): 9.0 | Herbicidal rating CYPSE (CYPSE (Flatsedge); Rate 0.0313 kg/ha): 0.0 | Herbicidal rating CYPSE (CYPSE (Flatsedge); Rate 0.0625 kg/ha): 0.0 | Herbicidal rating CYPSE (CYPSE (Flatsedge); Rate 0.1250 kg/ha): 0.0 | Herbicidal rating CYPSE (CYPSE (Flatsedge); Rate 0.2500 kg/ha): 0.0 | Preemergence herbicidal rating GALAP (GALAP (Galium); rate 0.0156 kg/ha): 0.0 | Preemergence herbicidal rating GALAP (GALAP (Galium); rate 0.0313 kg/ha): 0.0 | Preemergence herbicidal rating GALAP (GALAP (Galium); rate 0.0625 kg/ha): 0.0 | Preemergence herbicidal rating GALAP (GALAP (Galium); rate 0.1250 kg/ha): 9.0 | Preemergence herbicidal rating GALAP (GALAP (Galium); rate 0.2500 kg/ha): 9.0 | Postemergence herbicidal rating CHEAL ([5]; Rate 0.0158 kg/ha): 9.0 | Postemergence herbicidal rating CHEAL ([5]; Rate 0.0315 kg/ha): 9.0 | Postemergence herbicidal rating CHEAL ([5]; Rate 0.0630 kg/ha): 7.0 | Herbicidal rating ECHORC ([6]; Rate 0.0313 kg/ha): 0.0 | Herbicidal rating ECHORC ([6]; Rate 0.0625 kg/ha): 0.0 | Herbicidal rating ECHORC ([6]; Rate 0.1250 kg/ha): 5.0 | Herbicidal rating ECHORC ([6]; Rate 0.2500 kg/ha): 5.0 | Preemergence herbicidal rating AMBEL (AMBEL (Ragweed, Common); rate 0.0156 kg/ha): 0.0 | Preemergence herbicidal rating AMBEL (AMBEL (Ragweed, Common); rate 0.0313 kg/ha): 0.0 | Preemergence herbicidal rating AMBEL (AMBEL (Ragweed, Common); rate 0.0625 kg/ha): 6.0 | Preemergence herbicidal rating AMBEL (AMBEL (Ragweed, Common); rate 0.1250 kg/ha): 9.0 | Preemergence herbicidal rating AMBEL (AMBEL (Ragweed, Common); rate 0.2500 kg/ha): 9.0 | Herbicidal rating SAGPY ([7]; Rate 0.0313 kg/ha): 4.0 | Herbicidal rating SAGPY ([7]; Rate 0.0625 kg/ha): 7.0 | Herbicidal rating SAGPY ([7]; Rate 0.1250 kg/ha): 9.0 | Herbicidal rating SAGPY ([7]; Rate 0.2500 kg/ha): 9.0 | Postemergence herbicidal rating ZEAMX (ZEAMX (Corn, Field); Rate 0.0158 kg/ha): 7.0 | Postemergence herbicidal rating ZEAMX (ZEAMX (Corn, Field); Rate 0.0315 kg/ha): 7.5 | Postemergence herbicidal rating ZEAMX (ZEAMX (Corn, Field); Rate 0.0630 kg/ha): 7.5 | Postemergence herbicidal rating ORYSAT (ORYSAT (Rice, Tebonnet); Rate 0.0158 kg/ha): 5.0 | Postemergence herbicidal rating ORYSAT (ORYSAT (Rice, Tebonnet); Rate 0.0315 kg/ha): 5.0 | Postemergence herbicidal rating ORYSAT (ORYSAT (Rice, Tebonnet); Rate 0.0630 kg/ha): 6.0

Cn1c(C(F)(F)F)cc(=O)n(-c2cc(/N=C3/SC(CC(=O)O)C(=O)N3CC(=O)O)c(Cl)cc2F)c1=O (centres unmarked) [Compound 61, 2-{{2-Chloro-5-[3,6-dihydro-3-methyl-2,6-dioxo-4-(trifluoromethyl)-1(2H)-pyrimidinyl]-4-fluorophenyl}imino}-4-oxo-3,5-thiazolidinediacetic acid]
Postemergence herbicidal rating GLXMAW ([1]; Rate 0.0158 kg/ha): 2.0 | Postemergence herbicidal rating GLXMAW ([1]; Rate 0.0315 kg/ha): 3.0 | Postemergence herbicidal rating GLXMAW ([1]; Rate 0.0630 kg/ha): 4.0 | CYPIR herbicidal effect rating (CYPIR (Rice Flatsedge); 0.2500 kg/ha): 0.0 | Preemergence herbicidal rating SETVI (SETVI (Foxtail, Green) [2]; rate 0.1250 kg/ha): 0.0 | Preemergence herbicidal rating SETVI (SETVI (Foxtail, Green) [2]; rate 0.2500 kg/ha): 1.0 | Postemergence herbicidal rating SETVI (SETVI (Foxtail, Green) [3]; Rate 0.0158 kg/ha): 0.0 | Postemergence herbicidal rating SETVI (SETVI (Foxtail, Green) [3]; Rate 0.0315 kg/ha): 0.0 | Postemergence herbicidal rating SETVI (SETVI (Foxtail, Green) [3]; Rate 0.0630 kg/ha): 2.0 | Postemergence herbicidal rating TRZAWR ([4]; Rate 0.0158 kg/ha): 0.5 | Postemergence herbicidal rating TRZAWR ([4]; Rate 0.0315 kg/ha): 0.5 | Postemergence herbicidal rating TRZAWR ([4]; Rate 0.0630 kg/ha): 1.5 | Postemergence herbicidal rating ABUTH (ABUTH (Velvetleaf); Rate 0.0158 kg/ha): 0.0 | Postemergence herbicidal rating ABUTH (ABUTH (Velvetleaf); Rate 0.0315 kg/ha): 0.0 | Postemergence herbicidal rating ABUTH (ABUTH (Velvetleaf); Rate 0.0630 kg/ha): 0.0 | Herbicidal rating CYPSE (CYPSE (Flatsedge); Rate 0.2500 kg/ha): 0.0 | Preemergence herbicidal rating GALAP (GALAP (Galium); rate 0.1250 kg/ha): 0.0 | Preemergence herbicidal rating GALAP (GALAP (Galium); rate 0.2500 kg/ha): 0.0 | Postemergence herbicidal rating CHEAL ([5]; Rate 0.0158 kg/ha): 0.0 | Postemergence herbicidal rating CHEAL ([5]; Rate 0.0315 kg/ha): 0.0 | Postemergence herbicidal rating CHEAL ([5]; Rate 0.0630 kg/ha): 0.0 | Herbicidal rating ECHORC ([6]; Rate 0.2500 kg/ha): 0.0 | Preemergence herbicidal rating AMBEL (AMBEL (Ragweed, Common); rate 0.1250 kg/ha): 0.0 | Preemergence herbicidal rating AMBEL (AMBEL (Ragweed, Common); rate 0.2500 kg/ha): 0.0 | Herbicidal rating SAGPY ([7]; Rate 0.2500 kg/ha): 0.0 | Postemergence herbicidal rating ZEAMX (ZEAMX (Corn, Field); Rate 0.0158 kg/ha): 2.0 | Postemergence herbicidal rating ZEAMX (ZEAMX (Corn, Field); Rate 0.0315 kg/ha): 2.0 | Postemergence herbicidal rating ZEAMX (ZEAMX (Corn, Field); Rate 0.0630 kg/ha): 3.0 | Postemergence herbicidal rating ORYSAT (ORYSAT (Rice, Tebonnet); Rate 0.0158 kg/ha): 0.5 | Postemergence herbicidal rating ORYSAT (ORYSAT (Rice, Tebonnet); Rate 0.0315 kg/ha): 0.5 | Postemergence herbicidal rating ORYSAT (ORYSAT (Rice, Tebonnet); Rate 0.0630 kg/ha): 1.5
